Measurements from patent US8471005B2 (Cephalon, Inc., priority 2008, dated 2013).
Like-named read-outs stand apart in the source and are kept apart here.

Columns and labels:
[1] = target: T1, ALK (Homo sapiens, UniProt Q9UM73); assay: ALK Kinase Assay (ELISA/TRF, PLC-γ substrate); format: biochemical; details: read-out: ALK Potency
T1 construct: host or cells: baculovirus expression system
How it was run: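 First, plates are coated with substrate (phospholipase C-γ, 10 μg/mL, TBS). Next, 30 ng/ml ALK initiates phosphorylation for 15 min at 37° C. Then Eu-N1 PT66 antibody is added for detection, and a nonlinear dose-response fit of percent inhibition yields IC50.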

[2] = target: T2, JAK2 (Homo sapiens, UniProt O60674); assay: Recombinant Human JAK2 Kinase Assay (TRF); format: biochemical; details: read-out: JAK2 Potency
T2 construct: host or cells: baculovirus expression system
T2 sequence (O60674 whole entry): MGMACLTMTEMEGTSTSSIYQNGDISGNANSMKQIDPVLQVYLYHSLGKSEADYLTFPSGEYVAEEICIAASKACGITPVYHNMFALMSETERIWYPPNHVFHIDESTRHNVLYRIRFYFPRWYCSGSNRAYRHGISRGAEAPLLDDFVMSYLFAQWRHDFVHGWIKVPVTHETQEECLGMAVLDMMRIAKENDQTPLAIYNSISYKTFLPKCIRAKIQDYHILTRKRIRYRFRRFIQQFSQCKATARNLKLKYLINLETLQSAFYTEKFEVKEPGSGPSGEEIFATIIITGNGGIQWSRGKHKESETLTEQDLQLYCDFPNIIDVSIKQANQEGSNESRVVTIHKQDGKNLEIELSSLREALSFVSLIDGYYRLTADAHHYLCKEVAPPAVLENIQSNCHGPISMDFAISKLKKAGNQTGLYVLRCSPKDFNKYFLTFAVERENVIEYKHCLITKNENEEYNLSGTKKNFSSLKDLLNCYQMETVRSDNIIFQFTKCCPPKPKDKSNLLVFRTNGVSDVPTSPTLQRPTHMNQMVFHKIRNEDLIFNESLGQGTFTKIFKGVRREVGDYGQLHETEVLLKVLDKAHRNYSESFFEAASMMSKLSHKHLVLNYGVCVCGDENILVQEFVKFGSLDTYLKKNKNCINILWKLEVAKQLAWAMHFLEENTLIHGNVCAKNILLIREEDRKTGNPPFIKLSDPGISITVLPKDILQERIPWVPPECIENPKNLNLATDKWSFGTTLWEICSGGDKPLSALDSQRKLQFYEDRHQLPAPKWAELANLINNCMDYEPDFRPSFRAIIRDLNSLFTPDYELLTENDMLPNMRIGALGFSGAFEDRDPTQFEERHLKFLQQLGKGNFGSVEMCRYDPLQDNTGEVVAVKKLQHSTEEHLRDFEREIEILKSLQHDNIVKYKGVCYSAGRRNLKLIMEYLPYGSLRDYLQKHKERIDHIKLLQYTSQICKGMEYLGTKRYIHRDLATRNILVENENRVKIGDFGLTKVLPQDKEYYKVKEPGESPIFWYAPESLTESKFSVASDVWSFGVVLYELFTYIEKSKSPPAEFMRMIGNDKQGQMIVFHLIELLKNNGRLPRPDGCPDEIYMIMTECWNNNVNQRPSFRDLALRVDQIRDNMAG
How it was run: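 Kinase activity of baculovirus-expressed JAK2 is followed on a surface-immobilised biotinylated peptide, with the reaction run for 20 min at room temperature in buffer containing 0.2 μM ATP and manganese. Phosphorylation is read with Eu-N1 PY100 antibody.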

[3] = ALK kinase inhibition, 1 μM ATP
[4] = JAK2 kinase inhibition, 0.2 μM ATP

T1 sequence (Q9UM73 19-1620): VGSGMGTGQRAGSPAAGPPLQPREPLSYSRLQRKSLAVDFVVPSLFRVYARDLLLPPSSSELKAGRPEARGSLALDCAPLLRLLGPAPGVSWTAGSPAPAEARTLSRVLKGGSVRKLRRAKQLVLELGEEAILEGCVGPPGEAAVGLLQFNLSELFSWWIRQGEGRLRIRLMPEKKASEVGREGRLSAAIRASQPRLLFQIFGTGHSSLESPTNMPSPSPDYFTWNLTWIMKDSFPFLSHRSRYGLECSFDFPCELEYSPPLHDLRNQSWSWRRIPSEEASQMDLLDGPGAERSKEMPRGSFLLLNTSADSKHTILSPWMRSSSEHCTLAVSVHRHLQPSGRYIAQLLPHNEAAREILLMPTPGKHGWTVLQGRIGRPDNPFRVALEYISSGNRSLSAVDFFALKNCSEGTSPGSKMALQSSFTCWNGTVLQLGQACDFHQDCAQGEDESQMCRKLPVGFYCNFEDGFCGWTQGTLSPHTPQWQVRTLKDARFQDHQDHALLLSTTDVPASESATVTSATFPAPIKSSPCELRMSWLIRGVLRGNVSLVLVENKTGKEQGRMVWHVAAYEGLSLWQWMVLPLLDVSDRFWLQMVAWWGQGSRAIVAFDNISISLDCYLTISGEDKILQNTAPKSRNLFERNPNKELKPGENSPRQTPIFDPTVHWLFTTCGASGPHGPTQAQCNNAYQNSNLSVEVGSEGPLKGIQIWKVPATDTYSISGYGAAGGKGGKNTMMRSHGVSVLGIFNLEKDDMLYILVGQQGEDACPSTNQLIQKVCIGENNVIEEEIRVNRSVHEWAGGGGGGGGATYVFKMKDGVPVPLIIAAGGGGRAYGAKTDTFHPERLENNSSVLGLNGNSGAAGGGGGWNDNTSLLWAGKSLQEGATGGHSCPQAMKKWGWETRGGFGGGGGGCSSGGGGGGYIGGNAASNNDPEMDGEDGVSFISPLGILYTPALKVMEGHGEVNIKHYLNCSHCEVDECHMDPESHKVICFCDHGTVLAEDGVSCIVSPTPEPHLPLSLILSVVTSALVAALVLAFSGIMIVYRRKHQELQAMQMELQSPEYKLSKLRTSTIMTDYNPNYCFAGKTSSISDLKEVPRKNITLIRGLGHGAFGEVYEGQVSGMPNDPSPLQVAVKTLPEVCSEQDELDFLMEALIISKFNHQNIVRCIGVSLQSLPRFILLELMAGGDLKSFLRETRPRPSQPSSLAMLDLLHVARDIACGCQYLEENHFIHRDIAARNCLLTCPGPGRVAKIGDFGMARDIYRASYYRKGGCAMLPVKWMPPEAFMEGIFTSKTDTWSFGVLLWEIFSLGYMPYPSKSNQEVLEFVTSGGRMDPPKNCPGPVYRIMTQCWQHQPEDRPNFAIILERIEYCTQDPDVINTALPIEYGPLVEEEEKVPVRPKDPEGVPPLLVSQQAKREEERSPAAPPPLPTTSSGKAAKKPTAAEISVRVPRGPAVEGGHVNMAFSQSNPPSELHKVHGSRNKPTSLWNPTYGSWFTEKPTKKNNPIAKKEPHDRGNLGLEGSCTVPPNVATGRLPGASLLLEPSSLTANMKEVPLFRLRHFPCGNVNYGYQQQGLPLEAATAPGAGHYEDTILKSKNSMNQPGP

| Compound | IC50 [1, 3] [nM] | IC50 [2, 4] [nM] | IC50 ([1]; ALK Kinase Inhibition) [nM] | IC50 ([2]; JAK2 Kinase Inhibition) [nM] |
| --- | --- | --- | --- | --- |
| CN(C)c1cccc(CNc2ncc3c(-c4ccc(F)cc4)ccn3n2)c1 [Example 729, (3-Dimethylamino-benzyl)-[5-(4-fluoro-phenyl)-pyrrolo[2,1-f][1,2,4]triazin-2-yl]-amine] | > 10000 | 1000 to 10000 |  |  |
| Clc1cccc(-c2ccc3cnc(Nc4ccc(N5CCCC5)cc4)nn23)c1 [Example 167, [7-(3-Chloro-phenyl)-pyrrolo[2,1-f][1,2,4]triazin-2-yl]-(4-pyrrolidin-1-yl-phenyl)-amine] |  |  | 1000 to 10000 | < 100 |
| Cc1cc(Nc2ncc3ccc(-c4ccc(S(C)(=O)=O)cc4)n3n2)ccc1C1CCN(C)CC1 [Example 947, [7-(4-Methanesulfonyl-phenyl)-pyrrolo[2,1-f][1,2,4]triazin-2-yl]-[3-methyl-4-(1-methyl-piperidin-4-yl)-phenyl]-amine] | < 100 | < 100 |  |  |
| Cc1cc(Nc2ncc3ccc(-c4ccc(S(C)(=O)=O)cc4)n3n2)ccc1C1CCN(CC(N)=O)CC1 [Example 949, 2-(4-{4-[7-(4-Methanesulfonyl-phenyl)-pyrrolo[2,1-f][1,2,4]triazin-2-ylamino]-2-methyl-phenyl}-piperidin-1-yl)-acetamide] | < 100 | < 100 |  |  |
| COc1ccccc1-c1ccc2cnc(Nc3cc(OC)c(OC)c(OC)c3)nn12 [Example 142, [7-(2-Methoxy-phenyl)-pyrrolo[2,1-f][1,2,4]triazin-2-yl]-(3,4,5-trimethoxy-phenyl)-amine] |  |  | 100 to 1000 | < 100 |
| CN1CCN(CCOc2ccc(Nc3ncc4ccc(-c5cccnc5)n4n3)cc2)CC1 [Example 119, {4-[2-(4-Methyl-piperazin-1-yl)-ethoxy]-phenyl}-(7-pyridin-3-yl-pyrrolo[2,1-f][1,2,4]triazin-2-yl)-amine] |  |  | 100 to 1000 | < 100 |
| O=C(c1cccc(-c2ccc3cnc(Nc4ccc(N5CCOCC5)cc4)nn23)c1)N1CCCC1 [Example 15, {3-[2-(4-Morpholin-4-yl-phenylamino)-pyrrolo[2,1-f][1,2,4]triazin-7-yl]-phenyl}-pyrrolidin-1-yl-methanone] |  |  | 100 to 1000 | < 100 |
| CN1C(=O)COc2cc(Nc3ncc4ccc(-c5cccc(NS(C)(=O)=O)c5)n4n3)ccc21 [Example 638, N-{3-[2-(4-Methyl-3-oxo-3,4-dihydro-2H-benzo[1,4]oxazin-7-ylamino)-pyrrolo[2,1-f][1,2,4]triazin-7-yl]-phenyl}methanesulfonamide] | 100 to 1000 | < 100 |  |  |

Continued, values first:

| IC50 [1, 3] [nM] | IC50 [2, 4] [nM] | IC50 ([1]; ALK Kinase Inhibition) [nM] | IC50 ([2]; JAK2 Kinase Inhibition) [nM] | Compound |
| --- | --- | --- | --- | --- |
| < 100 | < 100 |  |  | CN1CCN(c2ccc(Nc3ncc4ccc(-c5ccccc5OCC#N)n4n3)cc2)CC1 [Example 1141, (2-{2-[4-(4-Methyl-piperazin-1-yl)-phenylamino]-pyrrolo[2,1-f][1,2,4]triazin-7-yl}-phenoxy)-acetonitrile] |
| 100 to 1000 | < 100 |  |  | CN1CCCC1COc1cccc(Nc2ncc3ccc(-c4cnn(C)c4)n3n2)c1 (centres unmarked) [Example 1007, [7-(1-Methyl-1H-pyrazol-4-yl)-pyrrolo[2,1-f][1,2,4]triazin-2-yl]-[3-(1-methyl-pyrrolidin-2-ylmethoxy)-phenyl]-amine] |
|  |  | < 100 | < 100 | CCN(c1ccccc1-c1ccc2cnc(Nc3ccc(N4CCC(N5CCOCC5)CC4)cc3OC)nn12)S(C)(=O)=O [Example 1460, N-Ethyl-N-(2-{2-[2-methoxy-4-(4-morpholin-4-yl-piperidin-1-yl)-phenylamino]-pyrrolo[2,1-f][1,2,4]triazin-7-yl}-phenyl)-methanesulfonamide] |
|  |  | 100 to 1000 | < 100 | CC(C)(C)NS(=O)(=O)c1cccc(-c2ccc3cnc(Nc4cccc(N5CCOCC5)c4)nn23)c1 [Example 1393, N-tert-Butyl-3-[2-(3-morpholin-4-yl-phenylamino)-pyrrolo[2,1-f][1,2,4]triazin-7-yl]-benzenesulfonamide] |
| 1000 to 10000 | < 100 |  |  | CN(c1ccccc1-c1ccc2cnc(Nc3cccnc3)nn12)S(C)(=O)=O [Example 1361, N-Methyl-N-{2-[2-(pyridin-3-ylamino)-pyrrolo[2,1-f][1,2,4]triazin-7-yl]-phenyl}-methanesulfonamide] |
